Columns and labels:
[1] = tested on: human embryonic stem (hES) cell line H1; conditions: MCDB-131 with 3.7 g/l versus 1 g/l bicarbonate
Description: Cells of the human embryonic stem (hES) cell line H1 at passage 46 (p46) were seeded as cell colonies to [sequence] (1:30 dilution) coated dishes at a 1 to 3 passage ratio by lifting cells with Dispase (Catalog #17105-041, Invitrogen, CA) and plating the cells in MEF-CM with 20 ng/ml of FGF2. The media was changed daily with fresh MEF-CM with 20 ng/ml of FGF2, until initiation of differentiation into definitive endoderm (DE) as follows: • a. MCDB-131 (Catalog #10372-019, Invitrogen, CA) medium supplemented with 2% fatty acid-free BSA (Catalog #68700, Proliant, IA), 1× GlutaMax™ (Catalog #35050-079, Invitrogen, Ca) and 100 ng/ml activin A (R&D Systems, MN) plus 20 ng/ml WNT-3a (Catalog #1324-WN-002, R&D Systems, MN) for one day, followed by treatment with MCDB-131 supplemented with 2% BSA, GlutaMax™, and 100 ng/ml activin A each day for an additional three days; or • b.
At day 4, samples were collected for FACS and gene expression analysis using real-time PCR, and counted by ViaCount® (Guava®, Millipore, Billerica, Mass.).

[2] = tested on: human embryonic stem cell line H1; assay: Differentiation of H1 cells to definitive endoderm in MCDB-131 with added glucose; FACS, real-time PCR, ViaCount at day 4 (Example 2); type: cell-based
Description: Cells of the human embryonic stem cell line H1 at passage 41 (p41) were lifted by TrypLE (Catalog #12604-013, Invitrogen, CA) and seeded as single cells at a density of 100,000 cells/cm^2 on MATRIGEL® coated dishes (1:30 dilution) in MEF-CM (mouse embryonic fibroblast conditioned media) supplemented with 20 ng/ml of FGF2 (Catalog #100-18B, PeproTech, NJ) and 10 μM of Y-27632 (a Rho Kinase Inhibitor, Catalog #Y0503, Sigma, MO). […] The cultures were differentiated into cells expressing markers characteristic of the definitive endoderm lineage 72 hrs post as follows: • a. […] MCDB-131 medium supplemented with 2% BSA, sodium bicarbonate, GlutaMax™, 100 ng/ml activin A, and either 0, 5, 10, 15, 20, or 25 mM of glucose for an additional three days.
However, these increases in cell number and CXCR4 were offset by a reduction in total cell viability (FIG. 2B).
These clustered cells were subsequently less evenly dispersed on the culture surface than populations of cells cultured in the basal level of glucose.

[3] = tested on: human embryonic stem cell line H1; assay: Differentiation of H1 cells to definitive endoderm in DMEM with low or high glucose; flow cytometry and qRT-PCR (Example 2); type: cell-based; conditions: for cells positive for CXCR4: flow cytometry
Description: Similar glucose related effects on differentiation were also observed in cultures differentiated with DMEM containing either 5.5 mM (low) or 25 mM (high) glucose concentration (Cat #s 10567-014 and 21063-029, Invitrogen, CA). As described above, for controls, cells were seeded as single cells, cultured 3 days in MEF conditioned media and differentiated in MCDB-131 with 5.5 mM or 25 mM glucose supplemented media, or in DMEM high or low glucose media supplemented with 2% fatty acid free BSA, 100 ng/ml activin A, and 20 ng/ml WNT-3a on the first day, and 2% fatty acid free BSA and 100 ng/ml activin A for the next three days with daily media change. Similar to results with MCDB-131 media, where elevated glucose inhibits definitive endoderm formation as compared to low glucose media treated cells, we observed that a high glucose concentration in DMEM reduced hES cell differentiation. By flow cytometry, following differentiation to definitive endoderm, 88.6% of cells were positive for CXCR4 in media containing 5.5 mM glucose versus 80% CXCR4 positive cells in media containing 25 mM glucose. Additionally, markers of differentiation to definitive endoderm as measured by qRT-PCR (SOX17) were decreased while markers of undifferentiated cells (OCT4) or alternative differentiation fates (CDX2) were increased (FIG. 5) in cells fed media containing high glucose versus those fed low glucose media. This effect was due at least in part to the pH of the media as we noted that over the four day differentiation, media pH dropped after 48 hours of differentiation day. Furthermore, the higher the starting and ending pH of culture media (8.1>pH>7.6) (FIG. 6) during definitive endoderm formation, the more complete the conversion to definitive endoderm.

[4] = increased glucose concentration, clustered cells, real-time PCR
[5] = high glucose versus low glucose media

SMILES | CD9 expression levels [1] | CXCR4 expression [1] | CXCR4 expression ([2]; additional 5 mM glucose (10.5 mM final), MCDB-131, day 4) | cell number ([2]; additional 10 mM glucose (15.5 mM final), MCDB-131, day 4) | SOX17 positive cells ([2]; basal level of glucose (5.5 mM), MCDB-131) | CD9 expression [2, 4] | MNX1 (HLXB9) gene expression [2, 4] | OCT4 expression [2, 4] | SOX7 expression [2, 4] | total cell viability ([2]; supplemented glucose (10.5 to 15.5 mM final), MCDB-131, day 4) | CDX2 expression (qRT-PCR) [3, 5] | OCT4 expression (qRT-PCR) [3, 5] | SOX17 expression (qRT-PCR) [3, 5] | cells positive for CXCR4 ([3]; media containing 5.5 mM glucose) | cells positive for CXCR4 ([3]; media containing 25 mM glucose)
O=C([O-])O.[Na+] [Sodium Bicarbonate] | lower | significantly higher | – | – | – | – | – | – | – | – | – | – | – | – | –
O=C[C@H](O)[C@@H](O)[C@H](O)[C@H](O)CO [glucose] | – | – | modest increase | modest increase | almost every cell in the culture was SOX17 positive | slight increase | decrease | slight increase | slight increase | reduction | increased | increased | decreased | 88.6% | 80%
